Measured values as given in publication PMC9299220, “Inhibition of JMJD6 by 2‐Oxoglutarate Mimics” (Chemmedchem, 2021).
Entries after “also recorded” stand apart in the source; their conditions may differ. Where two headings read alike, the source gives them in different places.

Experiments:
JMJD6Δ363‐403 = biological target: T1, JMJD6Δ363‐403 (Homo sapiens, UniProt Q6NYC1); assay: MALDI-TOF MS assay of JMJD6-catalysed lysine hydroxylation of LUC7L2 267-278 peptide; assay type: biochemical; settings: for IC50: n=3, 10 μM JMJD6Δ363‐403, 100 μM LUC7L2 267‐278, 100 μM Fe(II), 400 μM L-sodium ascorbate, 20 μM 2OG, inhibitor 0–10 mM; for potency of JMJD6 inhibition (in words): MS assay
T1 construct: made in house
Text: Initially, we used the MS assay to screen a range of potential JMJD6 inhibitors, based on scaffolds identified as inhibitors of other 2OG oxygenases, grouped into: (i) TCA cycle and related acidic compounds; (ii) 2OG mimics / broad spectrum 2OG oxygenase inhibitors; (iii) PHD inhibitors in clinical use / investigation; (iv) tricarbonyl type compounds, which are known iron oxygenase inhibitors; (v) reported inhibitors of the JmjC KDMs.[23]
Figure S1. Initial inhibition assays. Bar charts showing extent of JMJD6 inhibition by 0.1, 1, and 10 mM compound: (A) TCA cycle intermediates/related compounds, (B) 2OG analogues, (C) PHD inhibitors, (D) Tricarbonyl type compounds, (E) JmjC KDM inhibitors.
Values represent the mean ± SD (n = 3). Conditions: 10 µM JMJD6Δ363-403 (prepared as […]
reported) and 100 µM LUC7L2267-278 ([…], with a C-terminal amide) at 37 °C in 50 mM HEPES pH 7.5 buffer with 100 µM (NH4)2Fe(SO4)2.6H2O (Sigma-Aldrich), […]
varied inhibitor concentrations (0-10 mM). Reactions were quenched and products analysed by MALDI-TOF MS following a reported procedure.[11]
(1 picture or pasted object on this page, not shown here)

[1] = biological target: T2, JMJD6Δ363‐403.Zn(II).2OG complex (Homo sapiens, UniProt Q6NYC1); assay: Ligand-observed CPMG-edited 1H NMR 2OG displacement assay from JMJD6Δ363‐403.Zn(II).2OG complex; assay type: binding; settings: for Kd: 1H NMR, 60 µM EDTA-treated JMJD6, 200 µM Zn(II), 20 µM 2OG, 50 mM Tris-D11 pH 7.0, 10% D2O, mean ± SD (n=3), read-out: KD app (apparent binding constant) (converted); for extent of 2OG displacement from JMJD6Δ363‐403.Zn(II).2OG complex (in words): initial screen, fixed inhibitor concentration (400 µM ligand), Figure S6
T2 construct: made in house
Text: We investigated whether the inhibitors compete for binding to JMJD6^Δ363‐403, using ^1H NMR to investigate the extent to which they displace 2OG from the JMJD6^Δ363‐403.Zn(II).2OG complex, initially with a fixed inhibitor concentration (Figure S6).[21, 22]
Figure S6: 2OG displacement ligand-binding assays with JMJD6 using CPMG-edited 1H NMR. Bar charts show the extent of 2OG displacement for: (A) TCA cycle intermediates, (B) 2OG mimetics, (C) PHD inhibitors, (D) tricarbonyl type compounds, (E) KDM inhibitors. Conditions: 60 µM EDTA-treated JMJD6∆363-403, 200 µM Zn(II), 10 µM 2OG, and 400 µM of the ligand, all in 50 mM Tris-D11, pH 7.0 in 10% D2O. Values represent the mean (n = 3) ± standard deviation (SD). Eq DMSO: DMSO control without inhibitor.
Figure S7: KDapp determination for TCA cycle intermediates / related compounds binding to JMJD6. Plots used for the determination of KDapp values of (A) fumarate and (B) […]
succinate. […] Conditions: 60 µM
EDTA-treated JMJD6, 200 µM Zn(II), 20 µM 2OG, 0-400 µM ligand, all in 50 mM Tris-D11 pH 7.0 in 10% D2O. Values represent the mean ± SD (n = 3). Compound structures are […]
Figure S8: KDapp determination for pyridine derivative binding to JMJD6. Plots used for determination of KDapp values (A) 2,4-PDCA and (B) 2,4-BPDCA.
Conditions: 60 µM EDTA-treated
D2O. Values represent the mean ± SD (n = 3).
Figure S9: KDapp determination for PHD inhibitor binding to JMJD6. Plots used for the determination of KDapp value (A) AKB-6899 and (B) Vadadustat.
Conditions: 60 µM EDTA-treated JMJD6,
Values represent the mean ± SD (n = 3).
Conditions for NMR assays
NMR was used to measure 2OG displacement from JMJD6 caused by inhibitors according to the method of Leung et al. The Carr-Purcell-Meiboom-Gill (CPMG) pulse sequence coupled with periodic refocusing of J evolution by coherence transfer (PROJECT) method was applied for spectral editing was used to edit out protein signals. In the initial screen […]
2OG and 400 µM inhibitor; the 1H NMR-spectra of 2OG were then analysed. To determine the apparent binding constant (KDapp), 20 µM of 2OG was titrated against increasing concentrations of JMJD6Δ363-403 in the presence of Zn(II) [JMJD6∆363-403.Zn(II)]. Thus, JMJD6∆363-403.Zn(II) was added until the methylene signals of 2OG were no longer observed, indicating complete 2OG binding to JMJD6. The extent of 2OG (%) bound to JMJD6Δ363-403 was calculated and the values were plotted against the concentration of JMJD6Δ363-403 using OriginTM. The KDapp of 2OG was calculated as reported.[11] To determine the KDapp for the inhibitor, the recovery of 2OG-signals was monitored in the presence of varied concentrations of inhibitor (0-800 µM).
% 2OG Displacement = x 100 […]
where, I2OG is the integral of the 2OG 1H signal in the presence of both inhibitor and JMJD6∆363-403.Zn(II)], I2OG(0) is the integral of 2OG in the presence of JMJD6∆363-403.Zn(II)] without inhibitor, I2OG(blank) is the integral of 2OG in the absence of both JMJD6∆363-403.Zn(II)] and inhibitor, ∆obs is the change in the integral of 2OG resulting from titration, ∆max represents the maximum change of the monitored NMR parameter (2OG integral), [L]0 is the titrated ligand concentration, and [P]0 is the JMJD6∆363-403concentration. 5-10% error was typically allowed in the curve fitting process.

| Structure (SMILES) | IC50 (JMJD6Δ363‐403; IC50, mean±SD) [µM] | IC50 (JMJD6Δ363‐403; mean±SD, read-out: IC50) [µM] | further results |
| --- | --- | --- | --- |
| Cn1c(O)c(C(=O)CCc2ccccc2)c(=O)n(C)c1=O [compound 7] | 43 ± 1.1 | – | – |
| CCOC(=O)CNC(=O)c1c(O)n(C2CCCCC2)c(=O)n(C2CCCCC2)c1=O [compound 4] | 175 ± 1.5 | – | – |
| O=C(O)CNC(=O)c1ncc(-c2cccc(Cl)c2)cc1O [Vadadustat] | – | 7 ± 1.6 | Kd [1]: 14 µM; extent of 2OG displacement from JMJD6Δ363‐403.Zn(II).2OG complex (in words) [1]: most efficiently displaced 2OG |
| O=C(O)CNC(=O)CNC(=O)C(=O)O [compound 1] | – | 189 ± 1.5 | – |
| O=C(O)c1ccnc2c(O)cccc12 [compound 2] | – | 5 ± 1.3 | – |
| Cn1c(O)c(C(=O)CCc2ccsc2)c(=O)n(C)c1=O [compound 15] | ≥ 1000 | – | – |
| CC(=O)C(=O)O [Pyruvate] | – | 2377 ± 1.7 | – |
| CN(C)NC(=O)CCC(=O)O [Daminozide, reference compound] | 94 ± 1.5 | – | – |
| COc1cccc(CCC(=O)c2c(O)n(C)c(=O)n(C)c2=O)c1 [compound 13] | 135 ± 1.3 | – | – |
| O=C(O)c1ccnc(C(=O)O)c1 [2,4 PDCA, pyridine‐2,4‐dicarboxylate, reference compound] | – | 13 ± 1.3 | Kd [1]: 6 µM; extent of 2OG displacement from JMJD6Δ363‐403.Zn(II).2OG complex (in words) [1]: most efficiently displaced 2OG |
| O=C(O)CCC(=O)NO [compound 3] | – | 25 ± 2 | – |
| CC(Cc1ccsc1)C(=O)c1c(O)n(C)c(=O)n(C)c1=O (centres unmarked) [compound 16] | 214 ± 1.4 | – | – |
| O=C(CCC1CCCC1)c1c(O)n(C2CCCCC2)c(=O)n(C2CCCCC2)c1=O [compound 10] | ≥ 1000 | – | – |
| O=c1c(-n2ccnn2)c[nH]n1-c1cc(N2CCOCC2)ncn1 [Molidustat, reference compound] | – | 74 ± 1.6 | – |
| O=C(O)CC(O)C(=O)O (centres unmarked) [Malate] | – | 5103 ± 2 | – |
| Cn1c(O)c(C(=O)CCC2CC2)c(=O)n(C)c1=O [compound 14] | 163 ± 1.3 | – | – |
| O=C(O)CNC(=O)c1c(O)[nH]c(=O)[nH]c1=O [compound 5] | 19 ± 1.3 | – | – |
| O=C(O)/C=C/C(=O)O [Fumarate] | – | 165 ± 1.4 | potency of JMJD6 inhibition (in words) (JMJD6Δ363‐403): most potent of these compounds; Kd [1]: 109 µM; extent of 2OG displacement from JMJD6Δ363‐403.Zn(II).2OG complex (in words) [1]: most efficiently displaced 2OG |

| Structure (SMILES) | IC50 (JMJD6Δ363‐403; IC50, mean±SD) [µM] | IC50 (JMJD6Δ363‐403; mean±SD, read-out: IC50) [µM] | further results |
| --- | --- | --- | --- |
| O=C(O)CC(O)(CC(=O)O)C(=O)O [Citrate] | – | 987 ± 1.3 | – |
| O=C(O)c1ccnc(-c2cc(C(=O)O)ccn2)c1 [2,4 BPDCA, 2,2’‐bipyridine‐4,4’‐dicarboxylate, reference compound] | – | 6 ± 1.6 | Kd [1]: 7 µM; extent of 2OG displacement from JMJD6Δ363‐403.Zn(II).2OG complex (in words) [1]: most efficiently displaced 2OG |
| Cn1c(O)c(C(=O)NCC(=O)O)c(=O)n(C)c1=O [compound 6] | 23 ± 1.2 | – | – |
| CC(Cc1ccsc1)C(=O)c1c(O)n(C)c(=O)n(C)c1=O (centres unmarked) [compound 17] | 22 ± 1.4 | – | – |
| O=C(O)c1ccc(O)c2ncccc12 [IOX1, 5‐carboxy‐8‐hydroxyquinoline, reference compound] | – | 10 ± 1.5 | – |
| O=C(O)CNC(=O)c1c(O)n(C2CCCCC2)c(=O)n(C2CCCCC2)c1=O [GSK1278863, reference compound] | 10 ± 1.2 | – | – |
| O=C(O)CC[C@H](O)C(=O)O [L‐2HG, 2‐hydroxyglutarate] | – | 871 ± 1.5 | – |
| COc1ccccc1CCC(=O)c1c(O)n(C)c(=O)n(C)c1=O [compound 12] | 58 ± 1.4 | – | – |
| Cn1c(O)c(C(=O)CCc2cccs2)c(=O)n(C)c1=O [compound 8] | 27 ± 1.4 | – | – |
| Cc1nc(C(=O)NCC(=O)O)c(O)c2ccc(Oc3ccccc3)cc12 [FG‐4592, reference compound] | – | 23 ± 1.5 | – |
| O=C(O)CC(=O)C(=O)O [Oxaloacetate] | – | 204 ± 2 | – |
| O=C(O)CC[C@@H](O)C(=O)O [D‐2HG, 2‐hydroxyglutarate] | – | 622 ± 1.4 | – |
| CCn1c(O)c(C(=O)CCC2CCCC2)c(=O)n(CC)c1=O [compound 9] | ≥ 1000 | – | – |
| O=C(O)CCC(=O)O [Succinate] | – | 261 ± 2.3 | Kd [1]: 159 µM; extent of 2OG displacement from JMJD6Δ363‐403.Zn(II).2OG complex (in words) [1]: most efficiently displaced 2OG |
| O=C(O)CNC(=O)c1ncc(-c2cccc(F)c2)cc1O [AKB‐6899] | – | 9 ± 1.5 | Kd [1]: 3 µM; extent of 2OG displacement from JMJD6Δ363‐403.Zn(II).2OG complex (in words) [1]: most efficiently displaced 2OG |
| Cn1c(O)c(C(=O)CCC2CCCC2)c(=O)n(C)c1=O [compound 11] | 67 ± 1.2 | – | – |
| O=C(O)CNC(=O)C(=O)O [NOG, N‐oxalylglycine, reference compound] | – | 296 ± 1.9 | potency of JMJD6 inhibition (in words) (JMJD6Δ363‐403): poor inhibitor; also recorded: not a potent JMJD6 inhibitor; extent of 2OG displacement from JMJD6Δ363‐403.Zn(II).2OG complex (in words) [1]: only weakly displaced 2OG |
